Drawing on ChEMBL document CHEMBL1155850, “Synthesis and biological evaluation of a focused library of beauveriolides” (Bioorg Med Chem Lett, 2008), this text covers IC50 and inhibition for 37 compounds.

One test relates to Macrophage. In words: Inhibition of cholesterol ester synthesis in mouse macrophages assessed as lipid droplet accumulation. The class given is functional, cell-based.
Test [1] has as its target T1, Sterol O-acyltransferase 1 (Mus musculus) (UniProt Q61263).
T1 sequence (whole entry): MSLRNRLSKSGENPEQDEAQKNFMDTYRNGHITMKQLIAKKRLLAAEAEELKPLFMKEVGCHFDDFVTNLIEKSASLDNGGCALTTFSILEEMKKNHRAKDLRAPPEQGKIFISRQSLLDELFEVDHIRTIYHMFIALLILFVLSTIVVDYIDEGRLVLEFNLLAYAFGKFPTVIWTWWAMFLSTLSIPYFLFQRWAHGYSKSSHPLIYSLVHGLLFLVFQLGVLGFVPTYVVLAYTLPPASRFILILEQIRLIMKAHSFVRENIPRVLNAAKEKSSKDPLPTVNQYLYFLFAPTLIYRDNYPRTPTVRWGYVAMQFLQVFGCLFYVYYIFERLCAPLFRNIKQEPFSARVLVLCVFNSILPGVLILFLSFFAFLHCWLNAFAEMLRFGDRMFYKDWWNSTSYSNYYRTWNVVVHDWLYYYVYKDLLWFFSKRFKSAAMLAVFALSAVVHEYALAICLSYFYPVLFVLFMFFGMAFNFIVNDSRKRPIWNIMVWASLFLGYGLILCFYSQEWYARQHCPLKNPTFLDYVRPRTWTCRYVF
In words: Inhibition of ACAT in mouse liver microsomes at 20 uM. The note with it: Microsome.

Bounds are passed on as bounds.

For the compound `CCCC[C@H](C)[C@@H]1CC(=O)N[C@H](Cc2ccccc2)C(=O)N[C@H](C)C(=O)N[C@H]([C@H](C)CC)C(=O)O1`, in the test on Macrophage, the IC50 amounted to 2500 nM. Besides, in test [1], the inhibition stood at 91%. The like results for `CCCC[C@H](C)[C@@H]1CC(=O)N[C@H](Cc2ccccc2)C(=O)N[C@H](C)C(=O)N[C@H](CC(C)C)C(=O)O1` were, in that order, 1000 nM and 96%. The like results for `CCCC[C@H](C)[C@@H]1CC(=O)N[C@H](Cc2ccccc2)C(=O)N[C@@H](CO)C(=O)N[C@H](CC(C)C)C(=O)O1` were, in that order, greater than 20000 nM and 40%. In the case of `CCCC[C@H](C)[C@@H]1CC(=O)N[C@H](Cc2ccccc2)C(=O)N[C@@H](CO)C(=O)N[C@H](Cc2ccccc2)C(=O)O1`, the IC50 with Macrophage was 110 nM. Besides, the inhibition in test [1] was 95%. Turning to `CCCC[C@H](C)[C@@H]1CC(=O)N[C@H](Cc2ccccc2)C(=O)N[C@@H](C)C(=O)N[C@H](Cc2ccccc2)C(=O)O1`, the IC50 in the test with Macrophage was greater than 20000 nM. Further, in test [1], the inhibition turned out to be 47%. The like results for `CCCC[C@H](C)[C@@H]1CC(=O)N[C@@H](C(c2ccccc2)c2ccccc2)C(=O)N[C@@H](C)C(=O)N[C@H](Cc2ccccc2)C(=O)O1` were, in that order, 80 nM and 71%. The corresponding values for `CCCC[C@H](C)[C@@H]1CC(=O)N[C@@H](C(c2ccccc2)c2ccccc2)C(=O)N[C@@H](C)C(=O)N[C@H]([C@@H](C)CC)C(=O)O1` are 40 nM and 95%.

For `CCCC[C@H](C)[C@@H]1CC(=O)N[C@@H](C(c2ccccc2)c2ccccc2)C(=O)N[C@H](C)C(=O)N[C@H](Cc2ccccc2)C(=O)O1`, the IC50 in the test with Macrophage was 240 nM. The compound also displayed an inhibition in test [1] of 75%.

On to `CCCC[C@H](C)[C@@H]1CC(=O)N[C@@H](Cc2ccccc2)C(=O)N[C@@H](C)C(=O)N[C@H](CC(C)C)C(=O)O1` [BEAUVERIOLIDE I], for which the IC50 in the test on Macrophage stood at 600 nM. This compound had an inhibition in test [1] of 95%.

On to `CCCC[C@H](C)[C@@H]1CC(=O)N[C@@H](C(c2ccccc2)c2ccccc2)C(=O)N[C@H](C)C(=O)N[C@H]([C@H](C)CC)C(=O)O1`, for which the IC50 in the test on Macrophage came to 20 nM. In test [1], the inhibition is 97%. The like results for `CCCC[C@H](C)[C@@H]1CC(=O)N[C@@H](C(c2ccccc2)c2ccccc2)C(=O)N[C@@H](CC(N)=O)C(=O)N[C@H](Cc2ccccc2)C(=O)O1` were, in that order, 900 nM and 97%. With `CCCC[C@H](C)[C@@H]1CC(=O)N[C@@H](C(c2ccccc2)c2ccccc2)C(=O)N[C@@H](CO)C(=O)N[C@H](CC(C)C)C(=O)O1`, the IC50 in the test on Macrophage is greater than 20000 nM. The compound further came in with an inhibition in test [1] of 70%.

`CCCC[C@H](C)[C@@H]1CC(=O)N[C@@H](Cc2ccccc2)C(=O)N[C@@H](CC(N)=O)C(=O)N[C@H](CC(C)C)C(=O)O1`: the IC50 in the test on Macrophage is greater than 20000 nM. Further, the inhibition in test [1] is 43%.

Turning to `CCCC[C@H](C)[C@@H]1CC(=O)N[C@@H](C(c2ccccc2)c2ccccc2)C(=O)N[C@@H](C)C(=O)N[C@H]([C@H](C)CC)C(=O)O1`, the IC50 in the test with Macrophage worked out at 20 nM. Besides, in test [1], the inhibition was determined as 88%. The corresponding values for `CCCC[C@H](C)[C@@H]1CC(=O)N[C@@H](C(c2ccccc2)c2ccccc2)C(=O)N[C@H](C)C(=O)N[C@H]([C@@H](C)CC)C(=O)O1` are 20 nM and 91%.

With `CCCC[C@H](C)[C@@H]1CC(=O)N[C@@H](Cc2ccccc2)C(=O)N[C@H](C)C(=O)N[C@H]([C@@H](C)CC)C(=O)O1`, the IC50 with Macrophage was found to be 800 nM. In test [1], this compound gave an inhibition of 94%. The corresponding values for `CCCC[C@H](C)[C@@H]1CC(=O)N[C@@H](Cc2ccccc2)C(=O)N[C@@H](C)C(=O)N[C@H]([C@H](C)CC)C(=O)O1` are 1700 nM and 80%. The like results for `CCCC[C@H](C)[C@@H]1CC(=O)N[C@@H](Cc2ccccc2)C(=O)N[C@H](C)C(=O)N[C@H](CC(C)C)C(=O)O1` were, in that order, 480 nM and 98%. Turning to `CCCC[C@H](C)[C@@H]1CC(=O)N[C@H](Cc2ccccc2)C(=O)N[C@@H](C)C(=O)N[C@H]([C@@H](C)CC)C(=O)O1`, the IC50 in the test on Macrophage is greater than 20000 nM. The compound also had an inhibition in test [1] of 20%.

Consider `CCCC[C@H](C)[C@@H]1CC(=O)N[C@H](Cc2ccccc2)C(=O)N[C@H](C)C(=O)N[C@H]([C@@H](C)CC)C(=O)O1`, for which the IC50 with Macrophage turned out to be 900 nM. Also, the inhibition in test [1] was 99%. The like results for `CCCC[C@H](C)[C@@H]1CC(=O)N[C@H](Cc2ccccc2)C(=O)N[C@H](C)C(=O)N[C@H](Cc2ccccc2)C(=O)O1` were, in that order, 300 nM and 60%.

Take `CCCC[C@H](C)[C@@H]1CC(=O)N[C@H](Cc2ccccc2)C(=O)N[C@@H](C)C(=O)N[C@H]([C@H](C)CC)C(=O)O1`: in the test with Macrophage, the IC50 is greater than 20000 nM. In test [1], the inhibition amounted to 70%. On to `CCCC[C@H](C)[C@@H]1CC(=O)N[C@H](Cc2ccccc2)C(=O)N[C@@H](CC(N)=O)C(=O)N[C@H](Cc2ccccc2)C(=O)O1`, for which, in the test with Macrophage, the IC50 is greater than 20000 nM. Moreover, in test [1], the inhibition came out at 8%.

For `CCCC[C@H](C)[C@@H]1CC(=O)N[C@@H](Cc2ccccc2)C(=O)N[C@@H](CC(N)=O)C(=O)N[C@H](Cc2ccccc2)C(=O)O1`, the IC50 in the test with Macrophage is greater than 20000 nM. The same compound yielded an inhibition in test [1] of 11%. Take `CCCC[C@H](C)[C@@H]1CC(=O)N[C@H](Cc2ccccc2)C(=O)N[C@@H](C)C(=O)N[C@H](CC(C)C)C(=O)O1`: the IC50 with Macrophage was greater than 20000 nM. The compound also gave an inhibition in test [1] of 87%. The like results for `CCCC[C@H](C)[C@@H]1CC(=O)N[C@@H](C(c2ccccc2)c2ccccc2)C(=O)N[C@@H](CC(N)=O)C(=O)N[C@H](CC(C)C)C(=O)O1` were, in that order, 2000 nM and 98%. The like results for `CCCC[C@H](C)[C@@H]1CC(=O)N[C@H](Cc2ccccc2)C(=O)N[C@@H](CC(N)=O)C(=O)N[C@H](CC(C)C)C(=O)O1` were, in that order, greater than 20000 nM and 4%. On to `CCCC[C@H](C)[C@@H]1CC(=O)N[C@@H](Cc2ccccc2)C(=O)N[C@@H](C)C(=O)N[C@H]([C@@H](C)CC)C(=O)O1` [BEAUVERIOLIDE III], for which the IC50 in the test on Macrophage was found to be 400 nM. Besides, the inhibition in test [1] came to 91%.

Turning to `CCCC[C@H](C)[C@@H]1CC(=O)N[C@@H](C(c2ccccc2)c2ccccc2)C(=O)N[C@@H](CO)C(=O)N[C@H](Cc2ccccc2)C(=O)O1`, the IC50 in the test with Macrophage is 160 nM. The inhibition in test [1] was 96%.

As to `CCCC[C@H](C)[C@@H]1CC(=O)N[C@@H](Cc2ccccc2)C(=O)N[C@H](C)C(=O)N[C@H](Cc2ccccc2)C(=O)O1`, in the test with Macrophage, the IC50 was 10000 nM. In test [1], this compound showed an inhibition of 94%.

For `CCCC[C@H](C)[C@@H]1CC(=O)N[C@@H](Cc2ccccc2)C(=O)N[C@H](C)C(=O)N[C@H]([C@H](C)CC)C(=O)O1`, the IC50 in the test on Macrophage worked out at 650 nM. Besides, the inhibition in test [1] is 96%. The like results for `CCCC[C@H](C)[C@@H]1CC(=O)N[C@@H](Cc2ccccc2)C(=O)N[C@@H](CO)C(=O)N[C@H](CC(C)C)C(=O)O1` were, in that order, 12300 nM and 93%. For the compound `CCCC[C@H](C)[C@@H]1CC(=O)N[C@@H](C(c2ccccc2)c2ccccc2)C(=O)N[C@@H](C)C(=O)N[C@H](CC(C)C)C(=O)O1`, the IC50 with Macrophage is 80 nM. The same compound showed an inhibition in test [1] of 83%.

For the compound `CCCC[C@H](C)[C@@H]1CC(=O)N[C@H](Cc2ccccc2)C(=O)N[C@@H](CC(N)=O)C(=O)N[C@H](C[C@@H](C)CC)C(=O)O1`, in the test with Macrophage, the IC50 is greater than 20000 nM. As for `CCCC[C@H](C)[C@@H]1CC(=O)N[C@@H](C(c2ccccc2)c2ccccc2)C(=O)N[C@H](C)C(=O)N[C@H](CC(C)C)C(=O)O1`, the IC50 in the test with Macrophage stood at 70 nM. Further, in test [1], the inhibition is 93%. As to `CCCC[C@H](C)[C@@H]1CC(=O)N[C@@H](Cc2ccccc2)C(=O)N[C@@H](CO)C(=O)N[C@H](Cc2ccccc2)C(=O)O1`, in the test on Macrophage, the IC50 is 9300 nM. The compound further returned an inhibition in test [1] of 79%. The like results for `CCCC[C@H](C)[C@@H]1CC(=O)N[C@@H](Cc2ccccc2)C(=O)N[C@@H](C)C(=O)N[C@H](Cc2ccccc2)C(=O)O1` were, in that order, 7500 nM and 76%.

By IC50 is commonly meant the concentration at which inhibition is half-maximal. By inhibition is commonly meant the change of the read-out against control, counted positive when it falls.
